Assay results as given in patent US9358233B2, “Method for treating acute myeloid leukemia” (priority 2010, dated 2016).

Test system: patients with relapsed/refractory AML
Assay: Clinical trial of BI 6727 in combination with LD-Ara-C in AML patients
Assay type: in vivo
Protocol: BI 6727 (350 mg) was administered as a one-hour intravenous infusion on Days 1+15 every 28 days in combination with fixed dose LD-Ara-C (low-dose cytarabine) (20 mg twice daily s.c. [subcutaneous]). The starting dose of BI 6727 was based on the MTD previously determined in solid tumor patients. Patients with no progression after the first cycle were allowed to continue treatment.

[1] = preliminary, 32 patients with relapsed/refractory AML, different BI 6727 doses in combination with LD-Ara-C

Q: For `CC[C@@H]1C(=O)N(C)c2cnc(Nc3ccc(C(=O)N[C@H]4CC[C@H](N5CCN(CC6CC6)CC5)CC4)cc3OC)nc2N1C(C)C` [BI 6727, N-[trans-4-[4-(cyclopropylmethyl)-1-piperazinyl]cyclohexyl]-4-[[(7R)-7-ethyl-5,6,7,8-tetrahydro-5-methyl-8-(1-methylethyl)-6-oxo-2-pteridinyl]amino]-3-methoxy-benzamide], which MTD (BI 6727 d1+15q28d in combination with LD-Ara-C) is on record?
A: 350 mg

Q: What about the “DLTs as rated per protocol (kind)” value (human, in vivo) of the same compound?
A: pneumonia, mucositis, hypersensitivity/allergic reaction and myocardial infarction

Q: And the “Dose-limiting toxicities (DLTs), number of patients” value (human, in vivo)?
A: four

Q: What about the Clinical activity (in combination with LD-Ara-C, AML patients) of the same compound?
A: showed first signs of clinical activity

Q: And the “Best response: incomplete blood count recovery (CRi) or complete remission (CR), number of patients” value [1]?
A: seven

Q: What about the “Best response: partial remission, number of patients” value [1] of the same compound?
A: 1 patients

Q: What about the “Best response: temporarily stable blood values ("no change"), number of patients” value [1] of the same compound?
A: Six

Q: And the “Progression during or at the end of the first-treatment cycle, number of patients” value [1]?
A: Eleven
